Results reported in patent US10335380B2, “Compounds suitable for the treatment of myeloproliferative neoplasms as well as methods for the diagnosis/prognosis of myeloproliferative neoplasms” (CNIC Fundacion Centro Nacional De investigaciones …, priority 2013, dated 2019).

System: mice transplanted with MPN BM cells (JAK2-V617F)
Test: In vivo pharmacological treatments of mice transplanted with MPN (Mx1-cre;JAK2-V617F) BM cells
Parameters: species or system mouse
Source text: In Mx1-cre; JAK2-V617F double-transgenic mice, expression of the human JAK2-V617F mutation is driven by the endogenous Jak2 promoter and can be conditionally expressed in haematopoietic cells upon Myxovirus resistance-1 (Mx1)-driven Cre recombinase activation by polyinosine-polycytosine (plpC). PlpC-induced transgenic mice and wild-type mice transplanted with BM cells from these mice develop progressive symptoms of PV19,20.
Age-matched, female wild-type C57BL/6J or Nes-gfp mice were used as recipients in bone marrow (BM) transplantation assays and for in vivo pharmacological treatments. […] Vehicle (saline solution) daily injections were performed in the same way. Unless indicated, treatment was initiated 4 weeks posttransplant, when animals evidenced peripheral blood signs of MPN. Mice were randomly distributed prior to treatment initiation, and disease development was monitored over time in peripheral blood samples, using an automated blood counter. […] The neuroprotective drug 4-methylcatechol (10 μg kg-1, i.p.) was injected once daily. The JAK inhibitor INCB018424 (S-Ruxilitinib, Abmole Bioscience) was administered by oral gavage (30 mg kg-1, twice per day separated 10-12 hours) in 0.5% hydroxypropylmethylcellulose (Sigma) after solubilisation in DMSO. The IL-1 receptor antagonist (Kineret, Sobi, Stockholm, Sweden) was administered by subcutaneous osmotic pumps (Alzet) infusing a continuous dosing of 40 mg kg-1 per day. Mice were sacrificed at different time points and subjected to complete necropsy; BM and spleen were analysed by histology and flow cytometry; femora and skull were used for immunostainings, and haematopoietic and stromal cells were additionally used for functional assays ex vivo.
BM cell extraction, flow cytometry and fluorescence-activated cell sorting For haematopoietic cell recovery, bones were crushed in a mortar, filtered through a 40-μm mesh to obtain single cell suspensions, and depleted of red blood cells by lysis in 0.15 M NH4Cl for 10 min at 4° C. Spleen samples were homogenised and filtered prior to lysis; blood samples were directly lysed. Cells (1-2×10^6 cells per sample) were incubated with the appropriate dilution (2-5 μg ml-1) of fluorescent antibody conjugates and 4′,6-diamidino-2-phenylindole (DAPI) for dead cell exclusion, and analysed on LSRFortessa flow cytometer (BD Biosciences, Franklin Lakes, N.J.) equipped with FACSDiva Software (BD Biosciences). […] Biotinylated antibodies were detected with fluorochrome-conjugated streptavidin (BD Biosciences). Phenotypic populations of HSC were defined as long-term haematopoietic stem cells (HSCs) (lin− Sca1+c-kit+ (LSK) CD34− Flt3−), short-term HSCs (LSK CD34+ Flt3−) and multipotent progenitors (MPP) (LSK CD34+ Flt3+).
Cells were filtered through a 40-μm mesh and erythrocytes were lysed as previously described. The resulting bone marrow-enriched cell suspensions were pelleted, washed and resuspended in PBS buffer containing 2% foetal calf serum (FCS) for further analyses. […] BM stromal CD45− CD31− Ter119− cells were further purified according to GFP fluorescence using a FACS Aria cell sorter (BD Bioscience). For the determination of apoptotic cells, samples were washed with PBS after surface antibody staining and subsequently stained with Annexin V-Pacific Blue and SYTOX AADvanced (Invitrogen, Life Technologies, Paisley, UK). For functional assays, cells were enriched by immunomagnetic depletion using biotinylated CD45 and Ter119. For immunophenotypic characterisation, total BM samples were studied by flow cytometry using the following additional antibodies: CD63 (NVG-2), CD105 (MJ7/18), CD140a (APA5), Vcam, CD51 (RMV-7), all from Biolegend; and CD90.2 from BD Biosciences.
Immunofluorescence staining of cryostat sections was performed. For whole mount staining of the calvaria, all incubation times were extended. The antibodies used were TH (Rabbit pAb, Millipore) and GFAP (Rabbit pAb, Dako).

[1] = advanced MPN, BRL37344 started upon thrombocytosis
[2] = symptomatic MPN mice, chronic BRL37344 2 mg kg-1 i.p. twice a day

C[C@H](Cc1ccc(OCC(=O)O)cc1)NC[C@H](O)c1cccc(Cl)c1 [BRL37344, [4-[(2R)-2-[[(2R)-2-(3-clorophenyl)-2-hydroxyethyl]amino]propyl]phenoxy]acetic acid]
incipient MPN signs (haematological parameters) (8 weeks after transplantation, treatment for the last 4 weeks): improved | IL-1β in BM supernatant (BRL37344, 4 weeks, FIG. 4e): reduced | BM Nes-GFP+ cell number (BRL37344, 8 weeks, FIG. 4f): restored | Cxcl12 levels in BM (BRL37344, 16 weeks, FIG. 4g): increased | mutant haematopoietic progenitors (LSK cells, LT- and ST-HSCs) (BRL37344 administered at thrombocytotic stage, FIG. 4k): efficiently decreased | MPN progression (BRL37344 or Mirabegron 2 mg kg-1 i.p. twice a day): blocks | neuroglial gene expression (Mbp, Mobp, Pleckhb1 mRNA) in BM Nes-GFP+ cells from MPN mice (BRL37344 over 8 weeks, starting 4 weeks after transplantation): do not express | Schwann cell program activation in BM nestin+ cells (BRL37344 over 8 weeks, starting 4 weeks after transplantation, FIG. 11c): blocked | BM Schwann cells (Gfap immunostaining) [1]: rescued | BM interleukin-1β [1]: reduced | erythrocytosis [1]: reduced | fibrosis and osteosclerosis [1]: reduced | neutrophilia [1]: reduced | thrombocytosis [1]: reduced | BM fibrosis: excessive bone and fibroblastic tissue (reticulin, Van Gieson) (chronic BRL37344 versus vehicle-injected mice with severe fibrosis): virtually devoid of excessive bone and fibroblastic tissue | mutant haematopoietic progenitor expansion (early treatment, 4 weeks, BRL37344 2 mg kg-1 twice a day, 4-methylcatechol 10 μg kg-1 once daily): prevented | mutant haematopoietic progenitors (long-term BRL37344 treatment, 16 weeks): efficiently decreased | JAK2-V617F+ HSC expansion (long-term BRL37344 treatment, 16 weeks, 2 mg kg-1 twice a day i.p.): inhibits | MPN-associated thrombocytosis [2]: prevented | red blood cell reduction [2]: delayed | MPN-associated neutrophilia (symptomatic MPN mice, treatment started 4 weeks after transplantation, BRL37344 2 mg kg-1 i.p. twice a day, 4-methylcatechol 10 μg kg-1 i.p. once daily): prevented
